From PubChem BioAssay (NCI) come the findings set out here.

Test systems include 786-0 renal; CCRF-CEM leukemia; HT29 colon; KM12 colon; MDA-MB-435; NCI-H226 lung; PC-3 prostate; SF-295 CNS; SK-MEL-28 melanoma; SNB-19 CNS.
Holding throughout (assay): NCI anticancer screen, dose series, 48 h

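How tested: cells in 96-well plates exposed to compound for 48 hours at five concentrations. At the GI50, growth is halved. TGI denotes the concentration required for complete inhibition of growth.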

Regarding `COc1cc2c3c(n(CCCN4CCN(CCO)CC4)c(=O)c2cc1OC)-c1cc2c(cc1C3=O)OCO2`, the GI50 in the assay on 786-0 renal is 4.97 µM; in the assay with CCRF-CEM leukemia, 203 nM; with HT29 colon, 3.06 µM; in the assay with KM12 colon, 9.33 µM; with MDA-MB-435, more than 100 µM; in the assay on NCI-H226 lung, 7.49 µM. Besides, the GI50 in the assay on PC-3 prostate was 13.2 µM; in the assay with SF-295 CNS, 1.55 µM; in the assay with SK-MEL-28 melanoma it was 17.5 µM; in the assay with SNB-19 CNS, 14.3 µM. Further, the TGI is 18 µM in the assay on 786-0 renal; 1.8 µM in the assay with CCRF-CEM leukemia; 15.9 µM in the assay on HT29 colon; 22.7 µM in the assay on KM12 colon; more than 100 µM with MDA-MB-435; 28.4 µM in the assay on NCI-H226 lung. Moreover, the TGI in the assay with PC-3 prostate is 35.4 µM; in the assay with SF-295 CNS, 25.2 µM; in the assay on SK-MEL-28 melanoma, 32.1 µM; with SNB-19 CNS, more than 65.7 µM.

Turning to `COC(=O)CCc1c(/C=C2\N=C(c3ccc[nH]3)C=C2OC)[nH]c(C)c1C(=O)OCc1ccccc1`, the GI50 in the assay with 786-0 renal was 0.159 µM; with CCRF-CEM leukemia, 93.3 nM; in the assay with HT29 colon it was 0.138 µM; in the assay with KM12 colon it was 0.29 µM; with MDA-MB-435, 0.409 µM; in the assay on NCI-H226 lung it was 0.532 µM. The GI50 with PC-3 prostate is 0.228 µM; in the assay on SF-295 CNS it was 0.384 µM; in the assay on SK-MEL-28 melanoma, 0.503 µM; in the assay with SNB-19 CNS, 1.17 µM. The TGI in the assay on 786-0 renal is 1.3 µM; with CCRF-CEM leukemia, more than 58 µM; in the assay on HT29 colon, 1.68 µM; in the assay on KM12 colon it was 4.98 µM; in the assay on MDA-MB-435, 2.25 µM; in the assay on NCI-H226 lung, 4.75 µM. The TGI in the assay on PC-3 prostate is more than 37.6 µM; in the assay on SF-295 CNS it was 1.73 µM; in the assay on SK-MEL-28 melanoma, 2.3 µM; in the assay on SNB-19 CNS, more than 100 µM.

As for `NC(=S)N=Nc1c(O)[nH]c2ccccc12`, the GI50 was 142 µM with 786-0 renal; 253000 nM in the assay with CCRF-CEM leukemia; 652 µM in the assay with HT29 colon; 217 µM with KM12 colon; 925 µM in the assay with MDA-MB-435; 169 µM in the assay on NCI-H226 lung. The GI50 was 172 µM in the assay with PC-3 prostate, 197 µM in the assay with SF-295 CNS, 713 µM in the assay with SK-MEL-28 melanoma and 262 µM in the assay with SNB-19 CNS. Moreover, the TGI was 296 µM in the assay with 786-0 renal; more than 1000 µM in the assay with CCRF-CEM leukemia; more than 1000 µM in the assay on HT29 colon; more than 1000 µM with KM12 colon; more than 1000 µM with MDA-MB-435; 307 µM with NCI-H226 lung. The TGI with PC-3 prostate was 392 µM; with SF-295 CNS, 498 µM; with SK-MEL-28 melanoma it was more than 1000 µM; in the assay on SNB-19 CNS it was 722 µM.

With `CC(C)CC1NC(=O)C(C(C)C)NC(=O)CC(C)COC(=O)C(CC(C)C)N(C)C(=O)C(C(C)C)NC(=O)C(C(C)C)OC1=O` (centres undefined), the TGI with 786-0 renal, in the assay with CCRF-CEM leukemia, with HT29 colon, in the assay on KM12 colon, with MDA-MB-435 and in the assay on NCI-H226 lung was more than 50 µM in each case. For the same compound, the TGI in the assay on PC-3 prostate, with SF-295 CNS, in the assay with SK-MEL-28 melanoma and with SNB-19 CNS was more than 50 µM in each case.

Regarding `CCC(=O)Oc1ccc(/C=N/NC(N)=S)nc1`, the GI50 is 3.19 µM in the assay on 786-0 renal; 2810 nM in the assay with CCRF-CEM leukemia; 19.3 µM in the assay on HT29 colon; 4.69 µM in the assay with KM12 colon; 7.86 µM with MDA-MB-435; 9.72 µM in the assay with NCI-H226 lung. In addition, the GI50 was 6.83 µM in the assay with PC-3 prostate, 12.3 µM in the assay on SF-295 CNS, 34.3 µM in the assay on SK-MEL-28 melanoma and 14.2 µM in the assay with SNB-19 CNS. Also, the TGI in the assay on 786-0 renal was 13.7 µM; in the assay on CCRF-CEM leukemia, more than 100 µM; with HT29 colon it was more than 100 µM; in the assay on KM12 colon, more than 100 µM; in the assay with MDA-MB-435, more than 100 µM; with NCI-H226 lung it was 43.4 µM. Further, the TGI in the assay with PC-3 prostate, in the assay with SF-295 CNS, in the assay with SK-MEL-28 melanoma and with SNB-19 CNS was more than 100 µM in each case.

For the compound `COc1ccc(-c2cc(=O)c3cccnc3[nH]2)cc1`, the GI50 in the assay on 786-0 renal is 56.5 µM; with MDA-MB-435, 20 µM; in the assay with PC-3 prostate, 31.7 µM; in the assay with SF-295 CNS it was 65 µM. The TGI was more than 100 µM in the assay with 786-0 renal; 85.6 µM in the assay with CCRF-CEM leukemia; 38.4 µM with HT29 colon; more than 100 µM with KM12 colon; 91.6 µM with MDA-MB-435; more than 100 µM in the assay on NCI-H226 lung. Besides, the TGI in the assay with PC-3 prostate, in the assay with SF-295 CNS, in the assay with SK-MEL-28 melanoma and in the assay on SNB-19 CNS was more than 100 µM in each case.

Turning to `C[C@H](c1ccc(Cl)cc1[N+](=O)[O-])N1C(=O)c2cc(I)ccc2NC(=O)[C@H]1c1ccc(Cl)cc1`, the GI50 with 786-0 renal is more than 100 µM; with CCRF-CEM leukemia it was more than 100000 nM; with HT29 colon it was more than 100 µM; with KM12 colon it was more than 100 µM; in the assay with MDA-MB-435, more than 100 µM; in the assay with NCI-H226 lung, more than 100 µM. The GI50 in the assay on PC-3 prostate is 4.86 µM; with SF-295 CNS, 8.18 µM; in the assay on SK-MEL-28 melanoma, more than 100 µM; in the assay with SNB-19 CNS, more than 100 µM. Also, the TGI with 786-0 renal, with CCRF-CEM leukemia, in the assay with HT29 colon, with KM12 colon, in the assay on MDA-MB-435 and in the assay on NCI-H226 lung was more than 100 µM each time. The TGI in the assay with PC-3 prostate, with SF-295 CNS, with SK-MEL-28 melanoma and in the assay with SNB-19 CNS was more than 100 µM in each case.

Turning to `CC1SC(c2cccc(Cl)c2)N(NC(=O)C(O)c2ccccc2)C1=O` (centres undefined), the GI50 with 786-0 renal was more than 100 µM; in the assay with CCRF-CEM leukemia, more than 100000 nM; in the assay on HT29 colon it was more than 100 µM; with KM12 colon, more than 100 µM; in the assay with MDA-MB-435, more than 100 µM; in the assay with NCI-H226 lung it was more than 100 µM. Also, the GI50 with PC-3 prostate, in the assay with SF-295 CNS, with SK-MEL-28 melanoma and in the assay on SNB-19 CNS was more than 100 µM in each case. For the same compound, the TGI in the assay with 786-0 renal, with CCRF-CEM leukemia, in the assay on HT29 colon, in the assay with KM12 colon, in the assay on MDA-MB-435 and with NCI-H226 lung was more than 100 µM each time. Further, the TGI in the assay on PC-3 prostate, in the assay on SF-295 CNS, in the assay on SK-MEL-28 melanoma and with SNB-19 CNS was more than 100 µM in each case.

As for `CN1CCN(Cc2ccc(NC(=O)c3cncc(C#Cc4ncc5ccccn45)c3)cc2C(F)(F)F)CC1`, the GI50 with 786-0 renal was 3 µM; in the assay on CCRF-CEM leukemia it was 962 nM; with HT29 colon it was 0.827 µM; with KM12 colon it was 0.0112 µM; with MDA-MB-435 it was 2.01 µM; with NCI-H226 lung it was 0.451 µM. Besides, the GI50 was 1.27 µM with PC-3 prostate, 1.35 µM in the assay with SF-295 CNS, 2.82 µM in the assay with SK-MEL-28 melanoma and 3.09 µM with SNB-19 CNS. Further, the TGI came out at 6.4 µM in the assay on 786-0 renal; 8.3 µM with CCRF-CEM leukemia; 8.96 µM in the assay with HT29 colon; 2.9 µM in the assay with KM12 colon; 5.23 µM in the assay on MDA-MB-435; 3.91 µM in the assay on NCI-H226 lung. Further, the TGI in the assay with PC-3 prostate came out at 8.65 µM; in the assay with SF-295 CNS, 4.75 µM; in the assay on SK-MEL-28 melanoma it was 6.19 µM; in the assay on SNB-19 CNS, 8.44 µM.

`CC1CC2(C)CC(=O)C1C1C(=O)N(CCN3CCOCC3)C(=O)C12` (centres undefined): the GI50 is more than 100 µM in the assay on 786-0 renal; more than 100000 nM in the assay on CCRF-CEM leukemia; more than 100 µM with HT29 colon; more than 100 µM in the assay on KM12 colon; more than 100 µM with MDA-MB-435; more than 100 µM in the assay with NCI-H226 lung. Besides, the GI50 with PC-3 prostate, with SF-295 CNS, in the assay with SK-MEL-28 melanoma and with SNB-19 CNS was more than 100 µM in each case. Also, the TGI with 786-0 renal, in the assay on CCRF-CEM leukemia, in the assay with HT29 colon, in the assay with KM12 colon, with MDA-MB-435 and with NCI-H226 lung was more than 100 µM in each case. For the same compound, the TGI with PC-3 prostate, with SF-295 CNS, in the assay with SK-MEL-28 melanoma and with SNB-19 CNS was more than 100 µM throughout.

On to `CC(=O)c1cccc(NC(=O)/C(=N\NC(=S)NN)C2C(=O)Nc3ccccc3S2=O)c1` (centres undefined), for which the TGI with 786-0 renal, with CCRF-CEM leukemia, in the assay on HT29 colon, in the assay on KM12 colon, in the assay on MDA-MB-435 and in the assay on NCI-H226 lung was more than 100 µM each time. In addition, the TGI in the assay on PC-3 prostate, in the assay with SF-295 CNS, with SK-MEL-28 melanoma and in the assay on SNB-19 CNS was more than 100 µM each time.

`CCCCCCCCC(=O)NCCN(CCN)C(=O)CCCCCCCC`: the TGI turned out to be 12.4 µM with 786-0 renal; 8.19 µM in the assay with CCRF-CEM leukemia; 7.15 µM with HT29 colon; 6.01 µM in the assay on KM12 colon; 29.7 µM in the assay with MDA-MB-435; 37.1 µM with NCI-H226 lung. Further, the TGI stood at 25 µM in the assay with PC-3 prostate, 10.5 µM in the assay on SF-295 CNS, 30.5 µM in the assay on SK-MEL-28 melanoma and 17.7 µM with SNB-19 CNS.
